89 molecules from PubChem BioAssay AID624404 (Broad Institute, 2012) can be followed below.

For this test, the system named is D54 LucT luciferase reporter counterscreen, luminescence, 24 h. In words: luciferase activators in glycosylation-insensitive reporter cells, dose response, counter-screen for N-linked glycosylation inhibitor project, D54 LucT cells, luminescence, cherry pick (AID 624404). On the technique in general: The purpose of a counterscreen is to sort out artefacts and off-target activity.

Inconclusive results are not listed.

Take `Cc1ccc(S(=O)(=O)[N-]c2nc3ccccc3nc2-n2cc[n+](Cc3ccccc3)c2)cc1`: the AC35 was 33.9 nM.
For `CC(=O)c1sc(Nc2cccc3ccccc23)nc1C` the value was 4070 nM; for `CC#CCN1c2ccccc2[C@]23C[C@@H](C(=O)OC)N(C(=O)c4cc(C)oc4C)C2=NC(C(=O)OC)=C(C(=O)OC)[C@H]13`, 2270 nM; for `Oc1ccc(-c2csc(-c3c[nH]c4ccccc34)n2)c(O)c1`, 697 nM.
As for `COCCNC(=O)c1cc(-c2ccccc2OC)on1`, the figure is 3840 nM; as for `O=C(/C=C/c1ccco1)Nc1nnc(-c2ccco2)s1`, 204 nM.
For `CC[C@H](C)[C@@H](NC(=O)O[C@@H]1C(=O)c2cc(OC)ccc2O[C@H]1c1ccc(OC)c(Br)c1)C(=O)OC` the value was 1480 nM; for `O=C(c1cccs1)N1CCC(c2nc3c(nnn3Cc3cccc(Cl)c3)c(=O)[nH]2)CC1`, 174 nM.
As for `COc1cc(NC(=O)c2ccc(-c3c(C)noc3C)c3ccoc23)cc(OC)c1OC`, the AC35 is 58.2 nM.
For `O=C(COc1ccccc1)Nc1cccc(-c2cn3cccnc3n2)c1` the value was 1080 nM.
For `C[C@@]12C(=O)Nc3cc(Cl)ccc3C(=O)N1[C@H]1c3ccccc3OC[C@@H]1[C@@H]2c1ccccc1` the value was 282 nM; for `CCOC(=O)N/N=C/c1ccc(N(CC)CC)cc1O`, 2580 nM.
For `Cc1ccc(C(=O)N/C(=C/c2cccs2)C(=O)NCCc2c[nH]c3ccccc23)cc1` the value was 1170 nM; for `CCOc1ccc2[nH]c3c(N4CCc5ccccc5C4)ncnc3c2c1`, 4260 nM.
Regarding `NC(=O)CC(NC(=O)c1ccc(Br)cc1)c1ccc(N2CCCCCC2)c([N+](=O)[O-])c1` (centres undefined), the AC35 was 1090 nM.
As for `Cc1ccc(C2=NN(C(=O)CSc3nccn3C)C(c3ccco3)C2)cc1` (centres undefined), the figure is 323 nM; as for `O=C(N/N=C\c1cn(-c2ccccc2)nc1-c1ccccc1)c1ccc(Br)o1`, 957 nM.
As for `CCOc1ccc2cc(/C=C/C(=O)c3ccco3)c(Cl)nc2c1`, the figure is 4140 nM; as for `CCc1ccc(CNC(=O)Cc2ccc(NC(=O)C3=C(C)OCCS3)cc2)cc1`, 320 nM.
As for `COc1ccc(-c2oc3cc(O)c(OC)c(O)c3c(=O)c2OC)cc1O`, the figure is 909 nM.
As to `COc1ccc2c(c1)OC[C@H]1[C@H]2N2C(=O)c3ccc(F)cc3NC(=O)[C@@]2(C)[C@H]1c1ccccc1`, the AC35 was 1070 nM.
As for `COc1cc(C(=O)Nc2cc(C(F)(F)F)ccc2N2CCOCC2)ccc1OCC(=O)N1CCOCC1`, the AC35 is 2130 nM.
For `O=C1NC(=O)N(Cc2ccccc2)C(=O)/C1=C/C=C/c1ccco1` the value was 5280 nM; for `c1ccc(CNc2nc(-c3ccccc3)nc3ccccc23)cc1`, 3010 nM.
As for `Cc1ccc(Nc2nc(-c3sc(C)nc3C)cs2)cc1`, the figure is 46.9 nM; as for `O=C(NC(=C(Cl)Cl)S(=O)(=O)c1ccc(Cl)cc1)c1ccccc1`, 2160 nM; as for `CSc1cccc(NC(=O)CCCOc2cc(=O)n(C)c3ccccc23)c1`, 4530 nM.
As for `COc1cc(C(=O)N/N=C/c2ccc3c(c2)c2ccccc2n3C)ccc1O`, the figure is 9590 nM; as for `c1ccc2c(c1)C1=NCCN1c1ccccc1-2`, 6250 nM.
In the case of `COc1ccc2c(c1)C(=O)N1[C@H]3c4cc(OC)ccc4OC[C@@H]3[C@H](c3ccccc3)[C@]1(C)C(=O)N2`, the AC35 is 99.7 nM.
On to `Cc1cccc(N2C(=O)N3[C@H](c4ccc(F)cc4)[C@@H]4C(=O)N(C5CCCCC5)C(=O)[C@@H]4[C@]3(Cc3ccccc3)C2=O)c1`, for which the AC35 is 541 nM.
As for `COc1ccc(/C=C/C(=O)c2ccc(Cl)s2)cc1O`, the AC35 was 6020 nM.
For `O=C1c2ccccc2C(=O)N1Cc1cnc(N2CCN(c3ccccc3)CC2)s1` the value was 2890 nM; for `COc1cc(OC)cc(C(=O)NCC(=O)Nc2ccc(-c3ccccc3)cc2)c1`, 501 nM.
Turning to `COc1ccc(/C=N/NC(=O)c2cccc(NC(=O)c3ccccc3Cl)c2)cc1`, the AC35 is 495 nM.
As for `CC1(C(=O)NCC2CCOCC2)Cc2c(-c3cccc(C(F)(F)F)c3)ccnc2O1` (centres undefined), the figure is 32.5 nM; as for `Cn1nc(C(=O)Nc2cccc(S(=O)(=O)N3CCCCC3)c2)c2ccccc2c1=O`, 50.3 nM.
Turning to `CC(C)CCNC(=O)CCCOc1cc(=O)n(C)c2ccccc12`, the AC35 is 2260 nM.
For `Cc1ccc2nc(-c3ccncc3)cc(C(=O)Nc3ccncc3)c2c1` the value was 64.6 nM.
For `CCOC(=O)N1CCc2cc(OC)c(OC)c3c2c1cc1cc(OC)c(OC)cc13` the value was 1940 nM; for `CCOC(=O)c1c(NC(=O)c2cc3n(n2)C(C(F)(F)F)CC(c2cccs2)N3)sc(C)c1C` (centres undefined), 5360 nM; for `CCc1ccc(C2c3[nH]c4ccccc4c3CCN2C(=O)c2ccc(=O)n(C)n2)cc1` (centres undefined), 1240 nM.
As for `CC(C)Sc1ccccc1C(=O)Nc1ccc2c(c1)n(C)c(=O)n2C`, the figure is 1820 nM; as for `CCOc1ncccc1C(=O)Nc1cc2c(cc1Br)OCCO2`, 169 nM; as for `O=C(CCN1C(=O)/C(=C\c2ccccc2)SC1=S)N1CCCCC1`, 6190 nM.
Consider `COc1ccc2c(c1)[C@H]1[C@H](CO2)[C@H](c2ccccc2)[C@]2(C)C(=O)Nc3ccc(F)cc3C(=O)N12`, for which the AC35 is 582 nM.
As for `CCOC(=O)c1[nH]c(C)c(C(=O)c2ccc(C)cc2)c1C`, the figure is 1100 nM; as for `COC(=O)c1ccc(C(=O)NC2CC(C)(C)Cc3c2cnn3-c2ccc(F)cc2)nc1` (centres undefined), 3950 nM.
For `Cn1c(-c2ccccc2)c(/C=N/NC(=O)c2ccc(O)cc2)c2ccccc21` the value was 319 nM.
As for `N#Cc1c(-c2ccc(F)cc2)c(-c2ccc(F)cc2)nn(CCO)c1=O`, the figure is 997 nM; as for `CC(=O)Nc1cc(-c2cccc(C(=O)N(C)C)c2)cn2c(-c3cccc(C(=O)N(C)C)c3)cnc12`, 1740 nM; as for `Cc1ccc(C)n1-c1cccc(NC(=O)c2ccccc2)c1`, 7120 nM.
On to `O=C1N[C@H]2CC=C[C@H]2N(Cc2cccs2)c2ccccc21`, for which the AC35 was 199 nM.
For `COc1ccccc1-c1csc(C(NC(C)=O)c2ccc(F)c(F)c2)n1` (centres undefined) the value was 420 nM; for `Cc1ccc(C)c(Cn2nnc3c(=O)[nH]c(C4CCN(C(=O)c5ccco5)CC4)nc32)c1`, 852 nM; for `Cc1ccc2nc(Cl)c(/C=C/C(=O)c3ccco3)cc2c1`, 1530 nM.
As for `COc1ccc2c(c1)OC[C@H]1[C@H]2N2C(=O)c3cc(Br)ccc3NC(=O)[C@@]2(C)[C@H]1c1ccccc1`, the figure is 944 nM; as for `C[C@@]12C(=O)Nc3cc(F)ccc3C(=O)N1[C@H]1c3ccccc3OC[C@@H]1[C@@H]2c1ccccc1`, 1510 nM.
For `CCOC(=O)c1c(C)c(C(=O)Nc2cc(F)ccc2F)c(C)n1C` the value was 3020 nM; for `Cc1nnc2c3ccccc3c(-c3ccccc3)nn12`, 221 nM; for `Cc1cccc(N2CCN(C(=O)c3cc(S(=O)(=O)N4CCCC4)cn3C)CC2)c1C`, 33.3 nM.
`COCCCNC(=O)Cc1c(C)c2c(cc(C)c3c(C(C)(C)C)coc32)oc1=O`: the AC35 is 156 nM.
As for `O=C(c1ccc(CS(=O)c2ccccc2Cl)o1)N1CCN(c2ccccn2)CC1` (centres undefined), the figure is 5640 nM.
For `CCN(CC)c1ccc(C(=O)n2cnc3ccccc32)cc1` the value was 662 nM; for `Cc1ccc(C(=O)N2CCN(Cc3ccccc3)CC2)cc1S(=O)(=O)N1CCOCC1`, 2960 nM; for `COc1ccc2c(c1)C(=O)N1[C@H]3c4cc(Cl)ccc4OC[C@@H]3[C@H](c3ccccc3)[C@]1(C)C(=O)N2`, 981 nM.
As for `C(=N\Nc1nc2ccccc2[nH]1)/c1c[nH]c2ccccc12`, the figure is 718 nM.
As to `COc1ccc(CCn2c(=N)c(C(=O)NCC3CCCO3)cc3c(=O)n4cccc(C)c4nc32)cc1OC` (centres undefined), the AC35 is 154 nM.
As for `N=c1c(S(=O)(=O)c2ccc(Cl)cc2)cc2c(=O)n3ccccc3nc2n1CCc1ccccc1`, the figure is 564 nM; as for `Cc1ccc(C)c(NC(=S)NC(NC(=O)Cc2cccc3ccccc23)C(Cl)(Cl)Cl)c1` (centres undefined), 3550 nM; as for `Cc1nc2ncccn2c1-c1csc(Nc2ccc(N(C)C)cc2)n1`, 28.9 nM.
As for `CCN(CC)c1ccc(/C=N/n2nnnc2N)c(O)c1`, the figure is 336 nM; as for `c1ccc(-c2cc(-c3nnc4n3N=C(c3ccc5ccccc5c3)CS4)[nH]n2)cc1`, 205 nM; as for `Cc1ccc(-c2cc(C(=O)N/N=C/c3c[nH]c4ccccc34)[nH]n2)cc1`, 101 nM.
For `COc1cccc(C(NC(C)=O)c2nc(-c3ccccc3OC)cs2)c1` (centres undefined) the value was 93.3 nM; for `Cc1cc2nnc(SCC(=O)NCc3ccco3)n2c2ccccc12`, 16600 nM; for `COc1ccc2c(c1)C(=O)N1[C@H]3c4cc(C)ccc4OC[C@@H]3[C@H](c3ccccc3)[C@]1(C)C(=O)N2`, 933 nM.
Turning to `O=c1cc(-c2ccccc2)nc2cc(-c3ccc(F)cc3)[nH]n12`, the AC35 was 2190 nM.
For `COc1ccc(/C(C)=N/NC(=O)c2ccccc2OCc2ccccc2)c(OC)c1` the value was 56 nM.
For the molecule `COc1ccccc1C(=O)Nc1ccc2c(c1)nc(CCNC(=O)c1ccco1)n2C`, the AC35 is 45.3 nM.
For `COc1ccc2c(c1)[C@H]1[C@H](CO2)[C@H](c2ccccc2)[C@]2(C)C(=O)Nc3ccc(Cl)cc3C(=O)N12` the value was 148 nM; for `O=C1[C@H]2[C@@H](c3ccc(F)cc3)N3C(=O)N(c4cccc(Br)c4)C(=O)[C@@]3(Cc3ccccc3)[C@H]2C(=O)N1C1CCCCC1`, 480 nM; for `O=C(C[C@@H]1C/C=C/CC[C@H](Cc2ccc(F)cc2)C(=O)OC[C@@H](Cc2ccccc2)NC1=O)N[C@H](CO)Cc1ccccc1`, 4640 nM.
In the case of `CC[C@H](C)C(=O)O[C@H]1CCC=C2C=C[C@H](C)[C@H](CC[C@@H]3C[C@@H](O)CC(=O)O3)[C@H]21`, the AC35 was 1260 nM.
With `COCCCNC(=O)c1ccc(-c2c(C)noc2C)c2ccoc12`, the AC35 was 2330 nM.
As to `COc1ccc(-c2cc(C(=O)NCC(c3ccccc3)N(C)C)c3ccccc3n2)cc1OC` (centres undefined), the AC35 is 1100 nM.
For `COc1ccccc1-c1csc(C(NC(C)=O)c2cccc(F)c2)n1` (centres undefined) the value was 590 nM; for `COC(=O)c1cc(=O)n(-c2ccc(F)cc2)c(=Nc2ccc(F)cc2)s1`, 25.1 nM.
For `O=C(O)c1ccc(CN2C(=O)c3cccc4c([N+](=O)[O-])ccc(c34)C2=O)cc1` the value was 1140 nM.
